Test results published in patent US20260240863A1, “COMBINATION OF ROGINOLISIB AND HDAC INHIBITOR IN THE TREATMENT OF HAEMATOLOGICAL MALIGNANCY” (IONCTURA SA, priority 2023, published 2026).

Key:
[1] = clinical use of Vorinostat; cited from earlier work
[2] = tested on: MEC1 (CLL) cell line; assay: MTT antiproliferation combination assay, Chou-Talalay Combination Index, MEC1; assay type: cell-based; conditions: HDAC inhibitor in combination with Compound 1, 72 hours
Description: (§1) Cell lines from different haematological malignancies were exposed to increasing doses of Compound 1, to increasing doses of HDAC inhibitor, and to increasing doses of the combination of Compound 1 and HDAC inhibitor. Compound 1 and Vorinostat were used at a maximum concentration of 10 μM, following an eight fold dose response design based on 1:3 compound dilutions plus an untreated control. Belinostat was used at a maximum concentration of 10 μM, following an eight fold dose response design based on 1:4 compound dilutions plus an untreated control.
(§2) Cells were incubated for 72 hours at 37° C. and 5% CO2. The antiproliferative effect of single and combination treatments were determined by adding 20 μL MTT [3-(4,5-dimethylthiazolyl-2)-2,5-diphenyltetrazoliumbromide] reagent (Sigma Aldrich, Buchs, Switzerland) to each well and the plates were incubated at 37° C. for 4 hours, followed by adding 50 μL of sodium dodecyl sulfate (SDS) (250 µM SDS, 0.21% fuming HCl) lysis buffer. The lysed cells were kept overnight, and then the absorbance was read at 570 nm using the Cytation 3 instrument (BioTek, Winoosku, VT, USA). The effect of the combinations was determined according to the Chou-Talalay Combination Index (CI) (Chou 2008, Chou 2010) and calculated with the Synergy R package (Lee 2007). […]

[3] = tested on: Farage (DLBCL) cell line; assay: MTT antiproliferation combination assay, Chou-Talalay Combination Index, Farage; assay type: cell-based; conditions: HDAC inhibitor in combination with Compound 1, 72 hours
Description: as §1, §2

[4] = tested on: JVM2 (MCL) cell line; assay: MTT antiproliferation combination assay, Chou-Talalay Combination Index, JVM2; assay type: cell-based; conditions: HDAC inhibitor in combination with Compound 1, 72 hours
Description: as §1, §2

[5] = tested on: A20 (murine B-cell lymphoma) cell line; assay: MTT antiproliferation combination assay, Chou-Talalay Combination Index, A20; assay type: cell-based; conditions: HDAC inhibitor in combination with Compound 1, 72 hours
Description: as §1, §2

[6] = tested on: TMD8 (DLBCL) cell line; assay: MTT antiproliferation combination assay, Chou-Talalay Combination Index, TMD8; assay type: cell-based; conditions: HDAC inhibitor in combination with Compound 1, 72 hours
Description: as §1, §2

[7] = tested on: DNMT; conditions: more than that of azacytidine; cited from earlier work

## O=C(CCCCCCC(=O)Nc1ccccc1)NO [Vorinostat, N-Hydroxy-N′-phenyloctanediamide]
[1]
  pulmonary embolism (thromboembolic, most common life-threatening event): 4%
[2]
  Cl value (median): 0.83
[3]
  Cl value (median): 0.69
[4]
  Cl value (median): 0.71

## O=C(/C=C/c1cccc(S(=O)(=O)Nc2ccccc2)c1)NO [Belinostat, (2E)-N-Hydroxy-3-[3-(phenylsulfamoyl)phenyl]prop-2-enamide]
[5]
  Cl value (median): 0.87
[2]
  Cl value (median): 0.45
[3]
  Cl value (median): 0.51
[6]
  Cl value (median): 0.87
[4]
  Cl value (median): 0.62

## Nc1ncn([C@H]2C[C@H](O)[C@@H](CO)O2)c(=O)n1 [Decitabine, 5-aza-2′-deoxycytidine]
[7]
  inhibitory activity of DNMT relative to azacytidine: 30 times
